Test results reported in patent publication US7148240B2, “Aminoalkoxybenzoyl-benzofuran or benzothiophene derivatives, method for preparing same and compositions containing same” (Sanofi-Aventis, priority 2000, dated 2006).

Structure (SMILES) | melting point [°C]
CCCCc1oc2cc(C)c(C(=O)OC)cc2c1C(=O)c1ccc(OCCCN2CCCCC2)cc1.Cl | 181 to 183
CCCCc1oc2cccc(C(=O)OC)c2c1C(=O)c1ccc(OCCCN2CCCCC2)cc1.O=C(O)C(=O)O [Example 31, Methyl 2-butyl-3-[4-(3-(1-piperidinyl)propoxy]benzoyl]-1-benzofuran-4-carboxylate oxalate] | 160
